21 compounds from patent US7964607B2, “Pyrazolo[3,4-d]pyrimidine compounds” (Pfizer Inc., priority 2007, dated 2011) can be followed below.

SMILES strings stand for the structures. Where only a bound is given, the exact number is not on record here.

For the first assay, the target named is T1, human recombinant PDE9 enzyme (Homo sapiens, UniProt O76083).
T1 construct: made in house; host or cells: SF-9 insect cells
T1 sequence (O76083 whole entry): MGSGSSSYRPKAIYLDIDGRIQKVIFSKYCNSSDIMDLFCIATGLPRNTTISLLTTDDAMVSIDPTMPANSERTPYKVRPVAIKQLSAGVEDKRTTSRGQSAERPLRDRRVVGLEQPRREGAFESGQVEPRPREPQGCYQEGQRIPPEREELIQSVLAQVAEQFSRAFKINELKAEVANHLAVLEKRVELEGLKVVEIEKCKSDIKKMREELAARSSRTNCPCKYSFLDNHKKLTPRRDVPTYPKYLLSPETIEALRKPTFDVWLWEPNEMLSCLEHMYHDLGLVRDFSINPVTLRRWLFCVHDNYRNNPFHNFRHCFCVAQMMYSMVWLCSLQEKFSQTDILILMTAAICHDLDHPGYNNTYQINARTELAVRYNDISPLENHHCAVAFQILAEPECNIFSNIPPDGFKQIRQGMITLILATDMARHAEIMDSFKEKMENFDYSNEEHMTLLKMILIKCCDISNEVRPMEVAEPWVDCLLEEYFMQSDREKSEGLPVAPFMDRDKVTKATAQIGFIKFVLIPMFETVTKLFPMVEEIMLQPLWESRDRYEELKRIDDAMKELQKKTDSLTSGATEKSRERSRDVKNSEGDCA
In words: Phosphodiesterase 9 (PDE9) inhibitory activity, Scintillation Proximity (SPA) assay. In kind it is biochemical.
Conditions: not given
The method in brief: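 Recombinant human PDE9 from SF-9 cell lysate supernatant, diluted so that ≤20% of [3H]cGMP substrate was hydrolysed to 5′GMP. Reaction started with enzyme and run 30 min at room temperature with 2% DMSO final. SPA beads were counted after >300 min; background came from a high concentration of a PDE inhibitor.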
As usually defined, the IC50 is the concentration needed to halve the response being measured. For `C[C@@H]1CN(Cc2ccc(F)cc2)C[C@H]1c1nc2c(cnn2C2CCOCC2)c(=O)[nH]1` [Example 96, 6-[(3S,4S)-1-(4-fluorobenzyl)-4-methylpyrrolidin-3-yl]-1-(tetrahydro-2H-pyran-4-yl)-1,5-dihydro-4H-pyrazolo[3,4-d]pyrimidin-4-one], the IC50 was 7.13 nM.
On the same count and under the same terms, next, `C[C@@H]1CN(Cc2ccccc2F)C[C@H]1c1nc2c(cnn2C2CCOCC2)c(=O)[nH]1` [Example 98, 6-[(3S,4S)-1-(2-fluorobenzyl)-4-methylpyrrolidin-3-yl]-1-(tetrahydro-2H-pyran-4-yl)-1,5-dihydro-4H-pyrazolo[3,4-d]pyrimidin-4-one]: 7.93 nM; `COc1ccc(CN2C[C@@H](C)[C@H](c3nc4c(cnn4C4CCOCC4)c(=O)[nH]3)C2)cc1` [Example 101, 6-[(3S,4S)-1-(4-methoxybenzyl)-4-methylpyrrolidin-3-yl]-1-(tetrahydro-2H-pyran-4-yl)-1,5-dihydro-4H-pyrazolo[3,4-d]pyrimidin-4-one]: 7.94 nM.

The assay is the same for the next values; noted with them: human recombinant PDE9 from SF-9 cells; 50 nM [3H]cGMP; room temperature, 30 min; Examples 3-114; read-out: G5678A (U): IC50.
As for `Cc1ncc(CN2C[C@@H](C)[C@H](c3nc4c(c(C)nn4C4CCOCC4)c(=O)[nH]3)C2)cn1` [Example 93, 3-methyl-6-{(3S,4S)-4-methyl-1-[(2-methylpyrimidin-5-yl)methyl]pyrrolidin-3-yl}-1-(tetrahydro-2H-pyran-4-yl)-1,5-dihydro-4H-pyrazolo[3,4-d]pyrimidin-4-one], the 50% inhibitory concentration (IC50) turned out to be 24.3 nM.
Still for that read-out and setting: the same measure for `COc1ccc(CN2C[C@@H](C)[C@H](c3nc4c(c(C)nn4C4CCOCC4)c(=O)[nH]3)C2)cn1` [Example 94, 6-{(3S,4S)-1-[(6-methoxypyridin-3yl)methyl]-4-methylpyrrolidin-3-yl}-3methyl-1-(tetrahyrdro-2H-pyran-4-yl)-1,5-dihydro-4H-pyrazolo[3,4-d]pyrimidin-4-one]: 14.2 nM.
The same measure, in the same setting: next, `Cc1cccc(CN2C[C@@H](C)[C@H](c3nc4c(cnn4C4CCOCC4)c(=O)[nH]3)C2)n1` [Example 95, 6-{(3S,4S)-4-methyl-1-[(6-methylpyridin-2-yl)methyl]pyrrolidin-3-yl}-1-(tetrahydro-2H-pyran-4-yl)-1,5-dihydro-4H-pyrazolo[3,4-d]pyrimidin-4-one]: 3.92 nM; `C[C@@H]1CN(Cc2ccccc2C(F)(F)F)C[C@H]1c1nc2c(cnn2C2CCOCC2)c(=O)[nH]1` [Example 99, 6-{(3S,4S)-4-methyl-1-[2-(trifluoromethyl)benzyl]pyrrolidin-3-yl}-1-(tetrahydro-2H-pyran-4-yl)-1,5-dihydro-4H-pyrazolo[3,4-d]pyrimidin-4-one]: 12.8 nM.
In the case of `C[C@@H]1CN(Cc2ccc(F)cc2F)C[C@H]1c1nc2c(cnn2C2CCOCC2)c(=O)[nH]1` [Example 100, 6-[(3S,4S)-1-(2,4-difluorobenzyl)-4-methylpyrrolidin-3-yl]-1-(tetrahydro-2H-pyran-4-yl)-1,5-dihydro-4H-pyrazolo[3,4-d]pyrimidin-4-one], the IC50 amounted to 22.7 nM.
The same measure, in the same setting: next, `C[C@@H]1CN(Cc2ccccc2)C[C@H]1c1nc2c(cnn2C2CCSCC2)c(=O)[nH]1` [Example 102, 6-[(3S,4S)-1-benzyl-4-methylpyrrolidin-3-yl]-1-(tetrahydro-2H-thiopyran-4-yl)-1,5-dihydro-4H-pyrazolo[3,4-d]pyrimidin-4-one]: 19.7 nM; `COc1ccccc1CN1C[C@@H](C)[C@H](c2nc3c(cnn3C3CCOCC3)c(=O)[nH]2)C1` [Example 103, 6-[(3S,4S)-1-(2-methoxybenzyl)-4-methylpyrrolidin-3-yl]-1-(tetrahydro-2H-pyran-4-yl)-1,5-dihydro-4H-pyrazolo[3,4-d]pyrimidin-4-one]: 15.2 nM.
Still for that read-out and setting: the same measure for `COc1cccc(CN2C[C@@H](C)[C@H](c3nc4c(cnn4C4CCOCC4)c(=O)[nH]3)C2)c1` [Example 104, 6-[(3S,4S)-1-(3-methoxybenzyl)-4-methylpyrrolidin-3-yl]-1-(tetrahydro-2H-pyran-4-yl)-1,5-dihydro-4H-pyrazolo[3,4-d]pyrimidin-4-one]: 3.98 nM; for `C[C@@H]1CN(Cc2cccc(C(F)(F)F)c2)C[C@H]1c1nc2c(cnn2C2CCOCC2)c(=O)[nH]1` [Example 105, 6-{(3S,4S)-4-methyl-1-[3-(trifluoromethyl)benzyl]pyrrolidin-3-yl}-1-(tetrahydro-2H-pyran-4-yl)-1,5-dihydro-4H-pyrazolo[3,4-d]pyrimidin-4-one]: 3.29 nM; for `C[C@@H]1CN(Cc2c(F)cccc2F)C[C@H]1c1nc2c(cnn2C2CCOCC2)c(=O)[nH]1` [Example 106, 6-[(3S,4S)-1-(26-difluorobenzyl)-4-methylpyrrolidin-3-yl]-1-(tetrahydro-2H-pyran-4-yl)-1,5-dihydro-4H-pyrazolo[3,4-d]pyrimidin-4-one]: 8.06 nM.
The same measure, in the same setting: next, `CC[C@@H]1CN(Cc2cnc(C)cn2)C[C@H]1c1nc2c(cnn2C2CCOCC2)c(=O)[nH]1` [Example 107, 6-{(3S,4S)-4-ethyl-1-[(5-methylpyrazin-2-yl)methyl]pyrrolidin-3-yl}-1-(tetrahydro-2H-pyran-4-yl)-1,5-dihydro-4H-pyrazolo[3,4-d]pyrimidin-4-one]: 4.33 nM; `CC[C@@H]1CN(Cc2ccc(OC)nc2)C[C@H]1c1nc2c(cnn2C2CCOCC2)c(=O)[nH]1` [Example 108, 6-{(3S,4S)-4-ethyl-1-[(6-methoxypyridin-3-yl)methyl]pyrrolidin-3-yl}-1-(tetrahydro-2H-pyran-4-yl)-1,5-dihydro-4H-pyrazolo[3,4-d]pyrimidin-4-one]: 3.11 nM; `CC[C@@H]1CN(Cc2ccccn2)C[C@H]1c1nc2c(cnn2C2CCOCC2)c(=O)[nH]1` [Example 109, 6-[(3S,4S)-4-ethyl-1-(pyridin-2-ylmethyl)pyrrolidin-3-yl]-1-(tetrahydro-2H-pyran-4-yl)-1,5-dihydro-4H-pyrazolo[3,4-d]pyrimidin-4-one]: 4.21 nM.
In the case of `CC[C@@H]1CN(C(=O)c2cnc3ccccc3n2)C[C@H]1c1nc2c(cnn2C2CCOCC2)c(=O)[nH]1` [Example 110, 6-[(3S,4S)-4-ethyl-1-(quinoxalin-2-ylcarbonyl)pyrrolidin-3-yl]-1-(tetrahydro-2H-pyran-4-yl)-1,5-dihydro-4H-pyrazolo[3,4-d]pyrimidin-4-one], the concentration for half-maximal inhibition (IC50) came out at 2.59 nM.
Turning to `CC[C@@H]1CN(Cc2ccccc2C#N)C[C@H]1c1nc2c(cnn2C2CCOCC2)c(=O)[nH]1` [Example 112, 2-({(3S,4S)-3-ethyl-4-[4-oxo-1-(tetrahydro-2H-pyran-4-yl)-45-dihydro-1H-pyrazolo[3,4-d]pyrimidin-6-yl]pyrrolidin-1-yl}methyl)benzonitrile], the IC50 was found to be 1.37 nM.
The same measure, in the same setting: next, `CC[C@@H]1CN(Cc2cccc(C#N)c2)C[C@H]1c1nc2c(cnn2C2CCOCC2)c(=O)[nH]1` [Example 113, 3-({(3S,4S)-3-ethyl-4-[4-oxo-1-(tetrahydro-2H-pyran-4-yl)-4,5-dihydro-1H-pyrazolo[3,4-d]pyrimidin-6-yl]pyrrolidin-1-yl}methyl)benzonitrile]: less than 1 nM.
Same read-out and setting: next, `CC[C@@H]1CN(Cc2ccc(C#N)cc2)C[C@H]1c1nc2c(cnn2C2CCOCC2)c(=O)[nH]1` [Example 114, 4-({(3S,4S)-3-ethyl-4-[4-oxo-1-(tetrahydro-2H-pyran-4-yl)-45-dihydro-1H-pyrazolo[3,4-d]pyrimidin-6-yl]pyrrolidin-1-yl}methyl)benzonitrile]: 2.31 nM.

Staying with this assay, now noted: human recombinant PDE9 from SF-9 cells; 50 nM [3H]cGMP; room temperature, 30 min; additional compounds Ex. 115-228; read-out: G5678A (U):IC50.
With `Cc1cc(CN2CC(C)C(c3nc4c(cnn4C4CCCC4)c(=O)[nH]3)C2)n(C)n1` (stereo not drawn) [Example 133, 1-cyclopentyl-6-{(3,4-trans)-1-[(1,3-dimethyl-1H-pyrazol-5-yl)methyl]-4-methylpyrrolidin-3-yl}-1,5-dihydro-4H-pyrazolo[3,4-d]pyrimidin-4-one], the half-inhibitory concentration (IC50) is 33.7 nM.
